This note sets out measurements from patent US8877463B2, “Rhodanobacter ginsenosidimutans KCTC22231T-derived ginsenoside glycosidase, and use thereof” (Korea Research Institute of Bioscience and Biotechnology, priority 2009, dated 2014).

Experiment [1] concerns the target ginsenoside glycosidase (Bgl3054) (Microbacterium sp. Gsoil167, UniProt L0ELG0). The experiment is described as follows: Metal and chemical agent effects on enzymatic activity. As to conditions: at the concentration of 10 mM or more; room temperature 30 minutes; pNPGlc substrate. The format is biochemical, Rhodanobacter ginsenosidimutans KCTC22231T. As to the method:
Specific activity was measured using 90 μl of 50 mM sodium phosphate buffer containing 2.0 mM pNPGlc (p-nitrophenyl-β-D-glucopyranoside; Sigma) at pH 7.0, and 10 μl of the diluted purified enzyme was treated at 37° C. for 20 minutes before initiation of the reaction, followed by incubation. 0.1 ml of 1 M Na2CO3 was treated for 5 minutes to terminate the reaction, and the concentration of p-nitrophenol was immediately measured at 405 nm. One unit of activity was defined as the amount of enzyme that released 1 μmol of p-nitrophenol per minute. Specific activity is expressed in units per milligram protein. Protein concentration was measured using a Bio-Rad protein staining reagent according to the protocol. All analyses were performed at least three times.
Ginsenoside glycosidase was incubated at room temperature for 30 minutes in 1 mM and 10 mM (final concentration) of ZnCl2, MnCl2, CaCl2, CoCl2, MgCl2, EDTA, NaCl, KCl, CuCl2, DTT, SDS, and mercaptoethanol, and pNPGlc (p-nitrophenyl-β-D-glucopyranoside; Sigma) was used as a substrate to measure the activity. The resulting value was represented as a percentage to the obtained activity upon lack of the compounds, and is shown in Table 1.

For experiment [2], the system named is ginsenoside glycosidase Bgl3054. The experiment is described as follows: Reaction of expressed ginsenoside glycosidase with Rb1 solution, TLC analysis. The format is biochemical, Rhodanobacter ginsenosidimutans KCTC22231T. As to conditions: 1 mg/ml Rb1 solution in 50 mM sodium phosphate. As to the method:
E.coil C41 (DE3) containing overexpressed plasmid was cultured in LB-ampicillin media at 37° C. when the OD value at 600 nm reached 0.6, and treated with 0.5 mM isopropyl-β-D-thiogalactopyranoside for 12 hours to induce protein expression. The bacterial cells were obtained by centrifugation at 4° C. and 5,000×g for 20 minutes. The cell pellet was resuspended in a solution (suspension) consisting of 50 mM sodium phosphate, 5 mM EDTA, and 1% Triton X-100 (pH 7.0) and subjected to ultrasonification. Ginsenoside glycosidase was completely hydrated without formation of insoluble precipitate, and ginsenoside glycosidase was reacted with 1 mg/ml Rb1 solution in 50 mM sodium phosphate, and TLC analysis was performed.

In experiment [3] the test system is Bgl3054 ginsenoside glycosidase. The experiment is described as follows: Specificity and selectivity of the enzyme for hydrolysis of ginsenosides (TLC, HPLC, NMR). As to conditions: 0.2U enzyme, 50 mM sodium phosphate buffer pH 7.0, 0.1% (w/v) substrate, 37° C. The format is biochemical, Rhodanobacter ginsenosidimutans KCTC22231T. As for the experimental part: In order to analyze the specificity and selectivity of the enzyme for the hydrolysis of glucose at the C-3 and C-20 positions of ginsenoside, ginsenoside Rb1, Rb2, Rc, Rd, and Rg3 were used as the substrates. Each reaction mixture containing 0.2U enzyme, 50 mM sodium phosphate buffer 0.1% (w/v) (pH 7.0), and the substrate was incubated at 37° C. Each sample was withdrawn at regular intervals, and an equal volume of water-saturated butanol was added to stop the reaction. The n-butanol fraction was evaporated to dryness, and residual material was dissolved in CH3OH and then examined by TLC HPLC or NMR analysis, and the results are shown in FIGS. 10, 11 and 12.

For another experiment, the system named is Bgl3054. Nature of the experiment: Substrate preference with chromogenic ONP and PNP substrates. The class given is biochemical, Rhodanobacter ginsenosidimutans KCTC22231T. As to conditions: 2.0 mM substrate, 37° C., 5 minutes; for activity of Bgl3054 for the substrate, rank order after ONP-β-D-fucopyranoside: descending order as listed: PNP-fucopyranoside, oNP-glucopyranoside, ONP-galactopyranoside, PNP-glucopyranoside, PNP-arabinopyranoside, PNP-galactopyranoside. As for the experimental part:
A free PNP-type substrate has a yellow color, but turns colorless when it binds with various sugars. The characteristics of glucosidase-type enzymes were analyzed using this principle. For example, PNPGlc is a colorless compound prepared by beta linkage of PNP and glucose, but free PNP catalyzed by beta-glucosidase has a yellow color. Thus, when a color change occurs by use of PNPGlc as a substrate, the enzyme is determined as a beta-glucosidase. In addition, when PNP-β-D-galactopyranoside is metabolized by an enzyme to produce yellow color, it is determined as β-D-galactopyranosidase. The color becomes darker according to characteristics and concentrations of the substrate, and thus it is possible to measure the concentration of the enzyme using a spectrometer.
1 activity unit was defined as the release of o-nitrophenol or p-nitrophenol per minute. For analysis of substrate preference, 2.0 mM chromogenic ONP and PNP (p-nitrophenyl) were used as the substrates, and incubated in 50 mM sodium phosphate buffer at 37° C. for 5 minutes.
The analyzed substrates (Sigma) were PNP-β-D-glucopyranoside, PNP-β-D-galactopyranoside, PNP-β-D-fucopyranoside, PNP-N-acetyl-β-D-glucosaminide, PNP-β-L-arabinopyranoside, PNP-β-D-mannopyronoside, PNP-β-D-xylopyranoside, PNP-β-D-glucopyranoside, PNP-β-L-arabinofuranoside, PNP-β-L-arabinopyranoside, PNP-β-D-rhamnopyranoside, PNP-β-D-mannopyranoside, and PNP-β-D-xylopyranoside, and o-nitrophenol[ONP]-β-D-glucopyranoside, ONP-β-D-galactopyranoside, ONP-β-D-fucopyranoside, and ONP-β-D-galactopyranoside.

The test system of experiment [4] is ginsenoside glycosidase (Bgl3054). The experiment is described as follows: Kinetic studies of pNPGlc hydrolysis (Km, Vmax). The format is biochemical, Rhodanobacter ginsenosidimutans KCTC22231T. As to conditions: pNPGlc 0.1 mM to 0.6 mM, 37° C., 20 minutes, absorbance 405 nm. As for the experimental part:
Further, kinetic studies were performed with freshly purified enzyme using pNPGlc (p-nitrophenyl-β-D-glucopyranoside; Sigma) at the concentrations of from 0.1 mM to 0.6 mM. Its absorbance at 405 nm was monitored at 37° C. for 20 minutes. The resulting data were used to determine Km and Vmax using the Enzyme Kinetics Program reported by Cleland.
Km and Vmax for the hydrolysis of pNPGlc (p-nitrophenyl-β-D-glucopyranoside; Sigma) by ginsenoside glycosidase were calculated using the Enzyme Kinetics Program reported by Cleland.

Experiment [5] is classed as biochemical. As to conditions: 4-90° C., 2.0 mM pNPGlc, 50 mM potassium phosphate buffer, optimum pH, 5 minutes. As to the method: The effect of temperature on the enzymatic activity was measured. The temperature was adjusted between 4-90° C., and 2.0 mM pNPGlc (p-nitrophenyl-β-D-glucopyranoside; Sigma) was used to analyze the temperature-dependent activity in the 50 mM potassium phosphate buffer at the optimum pH for 5 minutes.
Further, the equivalent amount of enzyme was incubated in 50 mM potassium phosphate buffer within the same temperature range for 30 minutes to analyze the temperature stability. The sample was cooled in ice for 10 minutes, and the residual activity was measured according to a standard analytical procedure, and the results are shown in FIG. 7.

Experiment [6] is classed as biochemical. Particulars: 2.0 mM pNPGlc, 50 mM buffers. As to the method:
The effect of pH on the enzymatic activity was measured. 2.0 mM pNPGlc (p-nitrophenyl-β-D-glucopyranoside; Sigma) was used as a substrate, and pH was adjusted using the following buffer (50 mM).
pH range of 2 to 10: KCl-HCl (pH 2), glycine-HCl (pH 3), sodium acetic acid (pH 4 and 5), sodium phosphate (pH 6 and 7), Tris-HCl (pH 8 and 9) and glycine-sodium hydroxide (pH 10) Further, the effect of pH on the enzymatic stability was measured. The enzyme was incubated in each of the above mentioned buffers at 4° C. for 24 hours, and then pHPGlc was analyzed in 50 mM potassium buffer to measure the enzymatic stability according to pH change. Residue activity was analyzed according to a standard analytical procedure, and the results are shown in FIG. 6 as an activity probability obtained at the optimum pH.

`CCCCCCCCCCCCOS(=O)(=O)[O-].[Na+]` [SDS]: the “effect on the enzymatic activity” value in experiment [1] was “inhibitory effect”.
Regarding `CC(C)=CCC[C@](C)(O[C@@H]1O[C@H](CO[C@@H]2O[C@H](CO)[C@@H](O)[C@H](O)[C@H]2O)[C@@H](O)[C@H](O)[C@H]1O)[C@H]1CC[C@]2(C)[C@@H]1[C@H](O)C[C@@H]1[C@@]3(C)CC[C@H](O[C@@H]4O[C@H](CO)[C@@H](O)[C@H](O)[C@H]4O[C@@H]4O[C@H](CO)[C@@H](O)[C@H](O)[C@H]4O)C(C)(C)[C@@H]3CC[C@]12C` [Ginsenoside Rb1, ginsenoside Rb1], the “conversion of ginsenoside by Bgl3054 (TLC)” value in experiment [2] is “into F2 via Rd”. Moreover, the “bioconversion of the ginsenoside substrate by the enzyme” value (from here on “bioconversion”) in experiment [3] was “converted into Rd”.
For the molecule `CC(C)=CCC[C@](C)(O[C@@H]1O[C@H](CO)[C@@H](O)[C@H](O)[C@H]1O)[C@H]1CC[C@]2(C)[C@@H]1[C@H](O)C[C@@H]1[C@@]3(C)CC[C@H](O[C@@H]4O[C@H](CO)[C@@H](O)[C@H](O)[C@H]4O[C@@H]4O[C@H](CO)[C@@H](O)[C@H](O)[C@H]4O)C(C)(C)[C@@H]3CC[C@]12C` [Rd, ginsenoside Rd], the “bioconversion” value in experiment [3] is recorded as “converted into F2”.
For the molecule `O=[N+]([O-])c1ccccc1O[C@@H]1O[C@H](CO)[C@@H](O)[C@H](O)[C@H]1O` [oNP-β-D-glucopyranoside, o-nitrophenol[ONP]-β-D-glucopyranoside], the “activity of Bgl3054 for the substrate, rank order after ONP-β-D-fucopyranoside” value (“activity … after ONP-β-D-fucopyranoside” below) in the experiment with Bgl3054 is listed as “higher activity in this order”.
Take `C[C@H]1O[C@@H](Oc2ccccc2[N+](=O)[O-])[C@H](O)[C@@H](O)[C@H]1O` [ONP-β-D-fucopyranoside]: the “activity of Bgl3054 for the substrate (substrate preference)” value in the experiment with Bgl3054 (50 mM sodium phosphate buffer) is listed as “highest activity”.
Regarding `O=[N+]([O-])c1ccccc1O[C@@H]1O[C@H](CO)[C@H](O)[C@H](O)[C@H]1O` [ONP-β-D-galactopyranoside], the “activity … after ONP-β-D-fucopyranoside” value with Bgl3054 is “higher activity in this order”.
Turning to `O=[N+]([O-])c1ccc(O[C@@H]2O[C@H](CO)[C@@H](O)[C@H](O)[C@H]2O)cc1` [pNPGlc, p-nitrophenyl-β-D-glucopyranoside], the “activity … after ONP-β-D-fucopyranoside” value with Bgl3054 is recorded as “higher activity in this order”. Further, the “Vmax for the hydrolysis of pNPGlc by ginsenoside glycosidase” value in experiment [4] is on record as 0.3177(±0.01654) mmol*min−1*mg of protein-1.
For `CC(C)=CCC[C@](C)(O[C@@H]1O[C@H](CO[C@@H]2OC[C@H](O)[C@H](O)[C@H]2O)[C@@H](O)[C@H](O)[C@H]1O)[C@H]1CC[C@]2(C)[C@@H]1[C@H](O)C[C@@H]1[C@@]3(C)CC[C@H](O[C@@H]4O[C@H](CO)[C@@H](O)[C@H](O)[C@H]4O[C@@H]4O[C@H](CO)[C@@H](O)[C@H](O)[C@H]4O)C(C)(C)[C@@H]3CC[C@]12C` [Rb2, ginsenoside Rb2], in experiment [3], the “bioconversion” value is “converted into Rd”.
On to `C[C@H]1O[C@@H](Oc2ccc([N+](=O)[O-])cc2)[C@H](O)[C@@H](O)[C@H]1O` [PNP-β-D-fucopyranoside], for which the “activity … after ONP-β-D-fucopyranoside” value in the experiment with Bgl3054 is reported as “higher activity in this order”.
On to `O=[N+]([O-])c1ccc(O[C@@H]2O[C@H](CO)[C@H](O)[C@H](O)[C@H]2O)cc1` [PNP-β-D-galactopyranoside], for which the “activity … after ONP-β-D-fucopyranoside” value with Bgl3054 was “higher activity in this order”.
The same measure, in the same setting: with `O=[N+]([O-])c1ccc(O[C@H]2OC[C@H](O)[C@H](O)[C@H]2O)cc1` [PNP-β-L-arabinopyranoside] the entry was “higher activity in this order”.
Consider `CC(C)=CCC[C@](C)(O[C@@H]1O[C@H](CO[C@@H]2O[C@@H](CO)[C@H](O)[C@H]2O)[C@@H](O)[C@H](O)[C@H]1O)[C@H]1CC[C@]2(C)[C@@H]1[C@H](O)C[C@@H]1[C@@]3(C)CC[C@H](O[C@@H]4O[C@H](CO)[C@@H](O)[C@H](O)[C@H]4O[C@@H]4O[C@H](CO)[C@@H](O)[C@H](O)[C@H]4O)C(C)(C)[C@@H]3CC[C@]12C` [Ginsenoside Rc, ginsenoside Rc], for which, in experiment [3], the “bioconversion” value is given as “converted into compound Mc1”.

B1: Bgl3054: Rhodanobacter ginsenosidimutans KCTC22231T-derived ginsenoside glycosidase protein, 433 amino acids, SEQ ID NO. 2 (protein)
chain: GLGRRRASMMRGTPMTNPFPQDFLWGVATAGHQVEGNNVNSDVWFLEHLPGTIFAEPSGDAVDHYHRYREDIALIAGLGFTSYRFSVEWARIEPEEGHFSVAALDHYKRVLEACREHGLTPVVTFHHFASPLWLLRSGGWEGERTPELFARYCGRVMAHLGDLIGVACTLNEPNLPWLLESFGIGGEAPENRGKVPMWAAAAQRLGVDASTVAPFQFCSTEAGFNVKLAAHKAATEAIKAHRPDLRVGWTLANSDIQSVPGGEEIAAQVRRDVNERFLEASRGDDFVGIQTYGRTVYGPDGHAPAPEGVAVNQMGEEIYPQALEATIREAWRVAGIPVMVTENGLATEDDTQRVAYLRTAVDGVASCLADGIDVRGYIAWTAFDNFEWIFGYGPKFGLIAVDRSTQERTPKESARWLGNFARQQAPAEAPQPA
modifications: Bgl3054
For B1, the “temperature of maximum activity” value in experiment [5] was 40-55 °C. In experiment [6], the “pH of highest activity” value is given as 7.0.
